Experimental data reported in US6875451B2, “Compositions and methods for the treatment of primary and metastatic neoplastic diseases using arsenic compounds” (PolaRx Biopharmaceuticals Inc., priority 1997, dated 2005).

Tests used:
[1] = test system: refractory APL; conditions: 14 of 15 patients with refractory APL; intravenous 10 mg/day for 4-9 weeks; cited from earlier work
[2] = test system: OVCAR-5; experiment: SRB growth assay, 2 days exposure, ovarian cancer; format: cell-based
Protocol: (§1) Arsenic trioxide (1 mg/ml, 10 mg/ampoule, manufactured by Taylor Pharmaceuticals, Decatur, Ill.) was tested at five concentrations each at 10-fold dilutions, i.e., 10^−5, 10^−6, 10^−7, 10^−8 and 10^−9 μg/ml.
(§2) The in vitro tests were performed by incubating the test cells in the presence of the indicated concentration of arsenic trioxide under standard culture conditions for a designated period of time, which is followed by a sulforhodamine B (SRB) protein assay to estimate cell viability or growth. The cell lines are organized into subpanels according to the origin of the cell lines, e.g., leukemia, breast cancer, etc. A description of the cell lines and method of testing is described in Monk et al. (1997, Anticancer Drug Des. 12:533-41) and Weinstein et al., (1997, Science 275:343-9), which are incorporated herein in their entirety.
(§3) The measurement of an effect is expressed in Percentage Growth (PG). The measured effect of the compound on a cell line is calculated according to one or the other of the following two expressions: If (Mean ODtest−Mean ODzero)≧0. then PG=100×(Mean ODtest−Mean ODzero)/(Mean ODctrl−Mean ODzero) If (Mean ODtest−Mean ODzero)<0. then PG=100×(Mean ODtest−Mean ODzero)/(Mean ODzero where: • Mean ODzero=the average of optical density measurements of SRB-derived color just before exposure of cells to the test compounds; • Mean ODtest=the average of optical density measurements of SRB-derived color after exposure of cells to the test compound for a designated period of time; and • Mean ODctrl=the average of optical density measurements of SRB-derived color after with no exposure of cells to the test compound for a designated period of time
(§4) The first two columns describe the subpanel (e.g., leukemia) and cell line (e.g., CCRF-CEM) involved. The next two columns list the Mean ODzero and Mean ODctrl; the next five columns list the Mean ODtest for each of five different concentrations. Each concentration is expressed as the log10 (molar or μg/ml). The next five columns list the calculated PGs for each concentration. The response parameters GI50, TGI and LC50 are interpolated values representing the concentrations at which the PG is +50, 0, and −50, respectively. Sometimes these response parameters cannot be obtained by interpolation. If, for instance, all of the PGs in a given row exceed +50, then none of the three parameters can be obtained by interpolation. In such a case, the value given for each response parameter is the highest concentration tested and is preceded by a “>” sign. This practice is extended similarly to the other possible situations where a response parameter cannot be obtained by interpolation.
(§5) In the first set, the cells from 56 different cancer cell lines were exposed to five concentrations of arsenic trioxide continuously for two days prior to performing the SRB assay. In the second set, the cells from 50 different cell lines (a subset of the first 56 cell lines, plus the renal cancer cell line 786-0) were exposed continuously for six days prior to the SRB assay.

[3] = test system: SK-OV-3; experiment: SRB growth assay, 2 days exposure, ovarian cancer; format: cell-based
Protocol: as §1, §2, §3, §4, §5

[4] = test system: OVCAR-3; experiment: SRB growth assay, 2 days exposure, ovarian cancer; format: cell-based
Protocol: as §1, §2, §3, §4, §5

[5] = test system: OVCAR-8; experiment: SRB growth assay, 2 days exposure, ovarian cancer; format: cell-based
Protocol: as §1, §2, §3, §4, §5

[6] = test system: IGROV1; experiment: SRB growth assay, 2 days exposure, ovarian cancer; format: cell-based
Protocol: as §1, §2, §3, §4, §5

[7] = test system: MDA-N; experiment: SRB growth assay, 6 days exposure, breast cancer; format: cell-based
Protocol: as §1, §2, §3, §4, §5

[8] = test system: MCF7; experiment: SRB growth assay, 6 days exposure, breast cancer; format: cell-based; conditions: MCF7, 6 days
Protocol: as §1, §2, §3, §4, §5

[9] = test system: LOX IMVI; experiment: SRB growth assay, 2 days exposure, melanoma; format: cell-based
Protocol: as §1, §2, §3, §4, §5

[10] = test system: MALME-3M; experiment: SRB growth assay, 2 days exposure, melanoma; format: cell-based
Protocol: as §1, §2, §3, §4, §5

[11] = test system: UACC-257; experiment: SRB growth assay, 2 days exposure, melanoma; format: cell-based
Protocol: as §1, §2, §3, §4, §5

[12] = test system: SK-MEL-5; experiment: SRB growth assay, 2 days exposure, melanoma; format: cell-based
Protocol: as §1, §2, §3, §4, §5

[13] = test system: M14; experiment: SRB growth assay, 2 days exposure, melanoma; format: cell-based
Protocol: as §1, §2, §3, §4, §5

arsenic trioxide
clinical efficacy [1]: complete morphologic remission without associated bone marrow suppression | TGI [2]: >0.0126 ng/mL | Percent Growth ([2]; log10 conc −4.9): 34% | Percent Growth ([2]; log10 conc −5.9): 97% | Percent Growth ([2]; log10 conc −6.9): 93% | Percent Growth ([2]; log10 conc −7.9): 103% | Percent Growth ([2]; log10 conc −8.9): 105% | TGI [3]: >0.0126 ng/mL | Percent Growth ([3]; log10 conc −4.9): 40% | Percent Growth ([3]; log10 conc −5.9): 100% | Percent Growth ([3]; log10 conc −6.9): 98% | Percent Growth ([3]; log10 conc −7.9): 97% | Percent Growth ([3]; log10 conc −8.9): 94% | TGI [4]: >0.0126 ng/mL | Percent Growth ([4]; log10 conc −4.9): 12% | Percent Growth ([4]; log10 conc −5.9): 90% | Percent Growth ([4]; log10 conc −6.9): 97% | Percent Growth ([4]; log10 conc −7.9): 99% | Percent Growth ([4]; log10 conc −8.9): 101% | TGI [5]: >0.0126 ng/mL | Percent Growth ([5]; log10 conc −4.9): 28% | Percent Growth ([5]; log10 conc −5.9): 80% | Percent Growth ([5]; log10 conc −6.9): 84% | Percent Growth ([5]; log10 conc −7.9): 92% | Percent Growth ([5]; log10 conc −8.9): 92% | TGI [6]: >0.0126 ng/mL | Percent Growth ([6]; log10 conc −4.9): 18% | Percent Growth ([6]; log10 conc −5.9): 102% | Percent Growth ([6]; log10 conc −6.9): 105% | Percent Growth ([6]; log10 conc −7.9): 118% | Percent Growth ([6]; log10 conc −8.9): 111% | TGI [7]: 9.55E−06 | Mean Optical Densities ([7]; Log 10 Concentration −4.9): 0.026 | Percent Growth ([7]; Log 10 Concentration −4.9): −9% | Mean Optical Densities ([7]; Log 10 Concentration −5.9): 1.738 | Percent Growth ([7]; Log 10 Concentration −5.9): 65% | Mean Optical Densities ([7]; Log 10 Concentration −6.9): 2.606 | Percent Growth ([7]; Log 10 Concentration −6.9): 98% | Mean Optical Densities ([7]; Log 10 Concentration −7.9): 2.616 | Percent Growth ([7]; Log 10 Concentration −7.9): 99% | Mean Optical Densities ([7]; Log 10 Concentration −8.9): 2.468 | Percent Growth ([7]; Log 10 Concentration −8.9): 93% | CC50 ([7]; read-out: LC50 (the source's name)): > 12.6 µM | TGI [8]: 3.66E−06 | Mean Optical Densities ([8]; Log 10 Concentration −4.9): 0.008 | Percent Growth ([8]; Log 10 Concentration −4.9): −73% | Mean Optical Densities ([8]; Log 10 Concentration −5.9): 1.683 | Percent Growth ([8]; Log 10 Concentration −5.9): 63% | Mean Optical Densities ([8]; Log 10 Concentration −6.9): 2.603 | Percent Growth ([8]; Log 10 Concentration −6.9): 98% | Mean Optical Densities ([8]; Log 10 Concentration −7.9): 2.611 | Percent Growth ([8]; Log 10 Concentration −7.9): 99% | Mean Optical Densities ([8]; Log 10 Concentration −8.9): 2.647 | Percent Growth ([8]; Log 10 Concentration −8.9): 100% | TGI [9]: >0.0126 ng/mL | Percent Growth ([9]; log10 conc −4.9): 13% | Percent Growth ([9]; log10 conc −5.9): 73% | Percent Growth ([9]; log10 conc −6.9): 71% | Percent Growth ([9]; log10 conc −7.9): 88% | Percent Growth ([9]; log10 conc −8.9): 89% | TGI [10]: 0.00602 ng/mL | Percent Growth ([10]; log10 conc −4.9): −42% | Percent Growth ([10]; log10 conc −5.9): 90% | Percent Growth ([10]; log10 conc −6.9): 102% | Percent Growth ([10]; log10 conc −7.9): 123% | Percent Growth ([10]; log10 conc −8.9): 138% | TGI [11]: >0.0126 ng/mL | Percent Growth ([11]; log10 conc −4.9): 40% | Percent Growth ([11]; log10 conc −5.9): 88% | Percent Growth ([11]; log10 conc −6.9): 104% | Percent Growth ([11]; log10 conc −7.9): 97% | Percent Growth ([11]; log10 conc −8.9): 101% | TGI [12]: >0.0126 ng/mL | Percent Growth ([12]; log10 conc −4.9): 0% | Percent Growth ([12]; log10 conc −5.9): 78% | Percent Growth ([12]; log10 conc −6.9): 95% | Percent Growth ([12]; log10 conc −7.9): 97% | Percent Growth ([12]; log10 conc −8.9): 96% | TGI [13]: >0.0126 ng/mL | Percent Growth ([13]; log10 conc −4.9): 3% | Percent Growth ([13]; log10 conc −5.9): 87% | Percent Growth ([13]; log10 conc −6.9): 96% | Percent Growth ([13]; log10 conc −7.9): 105% | Percent Growth ([13]; log10 conc −8.9): 98%
